Assay results taken from patent US12054503B2, “Amphiphilic material and application thereof in preparation for liposome” (ZHEJIANG UNIVERSITY, priority 2021, dated 2024).

Legend:
[1] = tested on: orthotropic pancreatic tumor (BxPC3-Luci); assay: In vivo antitumor activity in orthotropic BxPC3 tumor-bearing mice
Experimental: The orthotropic pancreatic tumor was established by using the bioluminescent BxPC3 cells (BxPC3-Luci). Bioluminescence intensities in mice were measured using the in vivo imaging system of Caliper IVIS Lumina II (PerkinElmer, USA) to evaluate tumour growth. After inoculation with bioluminescent BxPC3 cells for 8 days, the mice were selected and grouped into five groups (n=5). SCGLN, SGLN, free GEM (all dose equivalent to GEM 20 mg/kg), SCLN and PBS were intravenous injected every two days for a total of five times, the tumor site was treated with ultrasound stimulation (intensity: 2 W/cm^2, 3 MHz, duty cycle: 50%, duration: 10 min, Mettler Sonicator-740) after injection. On the first administration (8th day), 12th, 16th, and 20th day, tumor progress was assessed and semi-quantitatively analyzed via bioluminescence after injection of 10 mg/mL D-luciferin in PBS (200 μL) by using the in vivo imaging system. Mice were sacrificed on the 20th day, and tumors were dissected and weighed. The tumor inhibition rate=100%×(mean tumor weight of PBS group−mean tumor weight of experimental group)/mean tumor weight of PBS group. The tumors were fixed with 4% neutral buffered paraformaldehyde and embedded in paraffin. Tissue sections of 5-μm thick were mounted onto glass slides and stained with hematoxylin-eosin (H&E) and examined by light microscopy (OLYMPUS, BX51, Japan). […]

[2] = tested on: U251 glioma; assay: In vivo antitumor activity in mice bearing U251 glioma subcutaneously
Experimental: In vivo antitumor activity of the liposomal nanometer particle was further tested in another low permeability tumor of U251 glioma. The mice were subcutaneously inoculated with 2×10^7 U251 cells on the right flank. Same as the experiment of pancreatic tumor treatment, mice were randomly grouped into five groups (n=5) on the 6th day after inoculation. SCGLN, SGLN, free GEM (all dose equivalent to GEM 20 mg/kg), SCLN and PBS were intravenous injected every two days for a total of five times, the tumor site was treated with ultrasound stimulation (intensity: 2 W/cm^2, 3 MHz, duty cycle: 50%, duration: 10 min, Mettler Sonicator-740) after injection, the first administration was on the 6th day. The width and length of the tumors and the bodyweight of mice were measured during the treatment. At the end of the experiment, the mice were euthanized, and tumors were dissected and weighed. The therapeutic efficacy of the treatments was evaluated by comparing the experimental group with the control group.

## Nc1ccn([C@@H]2O[C@H](CO)[C@@H](O)C2(F)F)c(=O)n1 [GEM, gemcitabine]
[1]; dose equivalent to GEM 20 mg/kg i.v. every two days, five times, ultrasound stimulation, tumor weight on 20th day
  Mean tumor inhibition rate: 66.7%
[1]; end of the experiment
  Body weight decrease at the end of the experiment: ~10 % of the initial weight
[2]; dose equivalent to GEM 20 mg/kg i.v. every two days, five times, ultrasound stimulation, end of the experiment
  Anti-tumor effect (tumor eradication ability): 68.8%
[2]; mouse, in vivo
  Weight of mice during the treatment: gradually decreased
